The values that follow come from the C3SDB collision cross section collection.

Counter-ions that a name gives are not always drawn.

The conditions of the first data set: [M+H-H2O]+; instrument: TW; calibrated with polyalanine and drug standards.
For `CNCC(O)c1ccc(O)cc1` (stereo unspecified) [OXEDRINE], the “collision cross section (N2)” value is recorded as 132 Å².

Staying with this data set, now noted: [M+H]+; instrument: TW; calibrated with polyalanine and drug standards.
Consider `CC(=O)OCC(=O)[C@@]1(O)CC[C@H]2[C@@H]3CCC4=CC(=O)CC[C@]4(C)[C@H]3[C@@H](O)C[C@@]21C` [HYDROCORTISONE ACETATE], for which the “collision cross section (N2)” value was determined as 196.1 Å².

Regarding `CN1[C@@H]2CC[C@H]1CC(OC(=O)[C@H](CO)c1ccccc1)C2` (stereo partly specified) [HYOSCYAMINE], the “collision cross section (N2)” value was determined as 169.7 Å².

`CC1Cc2ccccc2N1NC(=O)c1ccc(Cl)c(S(N)(=O)=O)c1` (stereo unspecified) [INDAPAMIDE]: the “collision cross section (N2)” value is 184.6 Å².

For the compound `O=c1c(-c2cc(O)c(O)c(O)c2)coc2cc(O)c(O)c(O)c12` [IRIGENOL], the “collision cross section (N2)” value is 166.5 Å².

`CC(=O)OCC(=O)[C@@]1(O)CCC2C3CCC4=CC(=O)C=C[C@]4(C)[C@@]3(F)[C@@H](O)C[C@@]21C` (stereo partly specified) [ISOFLUPREDNONE ACETATE]: the “collision cross section (N2)” value was 194.7 Å².

Turning to `NNC(=O)c1ccncc1` [ISONIAZID], the “collision cross section (N2)” value was determined as 125.6 Å².

On to `COc1cc(O)ccc1C(C)=O` [ISOPEONOL], for which the “collision cross section (N2)” value was determined as 128.6 Å².

On to `COc1c2ccoc2c(OC)c2oc(=O)ccc12` [ISOPIMPINELLIN], for which the “collision cross section (N2)” value worked out at 146.5 Å².

Regarding `COc1ccc(-c2coc3c(OC)c(OC)cc(O)c3c2=O)cc1` [ISOTECTORIGENIN, 7-METHYL ETHER], the “collision cross section (N2)” value came out at 171.9 Å².

Turning to `C=C(C)[C@H]1CN[C@H](C(=O)O)[C@H]1CC(=O)O` [KAINIC ACID], the “collision cross section (N2)” value was 144.2 Å².

As to `CC1(C)C[C@@H]2C(=O)CC[C@H]3O[C@]3(C)CC[C@H]21` [KOBUSONE], the “collision cross section (N2)” value is given as 146.3 Å².

With `COc1ccc(-c2coc3cc(O)ccc3c2=O)c(O)c1O` [KOPARIN], the “collision cross section (N2)” value was 162.1 Å².

In the case of `COc1c(O)cc2c(-c3ccccc3)cc(=O)oc2c1OC` [KUHLMANNIN], the “collision cross section (N2)” value was 165.6 Å².

In the case of `CCCCS(=N)(=O)CC[C@H](N)C(=O)O` (stereo partly drawn) [L-BUTHIONINE SULFOXIMINE], the “collision cross section (N2)” value is given as 146.1 Å².

As to `O=C(O)[C@H](O)[C@@H](O)[C@H](O[C@@H]1O[C@H](CO)[C@H](O)[C@H](O)[C@H]1O)[C@H](O)CO` [LACTOBIONIC ACID], the “collision cross section (N2)” value is 168.7 Å².

Take `C[C@@H]1CC[C@H]2[C@](C)(CO)[C@@H](O)CC[C@]2(C)[C@@]12CC[C@@](CO)(CCO)O2` [LAGOCHILIN]: the “collision cross section (N2)” value came to 171.2 Å².

As for `Cc1occc(=O)c1O` [LARIXINIC ACID], the “collision cross section (N2)” value came to 117.7 Å².

In the case of `C=C[C@@](C)(O)CCC1C(=C)C[C@H](O)C2C(C)(C)CCCC12C` (stereo partly specified) [LARIXOL], the “collision cross section (N2)” value is reported as 176.2 Å².

Consider `CC1=CC(=O)C2=C(C)CC[C@@H]3[C@H](OC(=O)[C@H]3C)[C@@H]12` [LEUCODIN], for which the “collision cross section (N2)” value came out at 154.2 Å².

Take `N[C@@H](Cc1ccc(O)c(O)c1)C(=O)O` [LEVODOPA]: the “collision cross section (N2)” value worked out at 145.4 Å².

For `CCOC(=O)N1CCC(=C2c3ccc(Cl)cc3CCc3cccnc32)CC1` [LORATADINE], the “collision cross section (N2)” value came out at 185.8 Å².

As to `C=C1C[C@H]2[C@@H]3C=C(C)C4=CC(=O)CC[C@]4(C)[C@H]3CC[C@]2(C)[C@@]1(OC(C)=O)C(C)=O` [MELENGESTROL ACETATE], the “collision cross section (N2)” value came out at 198.2 Å².

As for `[O-][n+]1cccc(CO)c1` [MEPIROXOL], the “collision cross section (N2)” value is listed as 120.4 Å².

As for `Nc1ccc(O)c(C(=O)O)c1` [MESALAMINE], the “collision cross section (N2)” value is recorded as 134.7 Å².

Turning to `CN1C[C@H](CNC(=O)OCc2ccccc2)C[C@@H]2c3cccc4c3c(cn4C)C[C@H]21` [METERGOLINE], the “collision cross section (N2)” value was 197.6 Å².

As to `C1N2CN3CN1CN(C2)C3` [METHENAMINE], the “collision cross section (N2)” value was found to be 126.8 Å².

`COc1cc(C)c2c(=O)cc(-c3ccccc3)oc2c1` [METHOXYVONE]: the “collision cross section (N2)” value worked out at 156.5 Å².

In the case of `Cc1cc(=O)[nH]c(=S)[nH]1` [METHYLTHIOURACIL], the “collision cross section (N2)” value is on record as 123.7 Å².

With `COc1cc(OC)c(C(C)=O)c(O)c1C` [METHYLXANTHOXYLIN], the “collision cross section (N2)” value stood at 140.2 Å².

For `Cc1cc2c(cc1S(N)(=O)=O)S(=O)(=O)CCC2` [METICRANE], the “collision cross section (N2)” value is listed as 159.4 Å².

On to `Cc1ccccc1N1C(=O)c2cc(S(N)(=O)=O)c(Cl)cc2NC1C` (stereo unspecified) [METOLAZONE], for which the “collision cross section (N2)” value was determined as 181.2 Å².

On to `Cc1ncc([N+](=O)[O-])n1CCO` [METRONIDAZOLE], for which the “collision cross section (N2)” value was 130.4 Å².

`COC(=O)C[C@H]1C(C)(C)C(=O)[C@@H]2CC3=C4CC(=O)O[C@@H](c5ccoc5)[C@]4(C)CC[C@@H]3[C@@]1(C)C2=O` [MEXICANOLIDE]: the “collision cross section (N2)” value came to 203.9 Å².

For the compound `COc1c(C)c2c(c(O)c1C/C=C(\C)CCC(=O)OCCN1CCOCC1)C(=O)OC2` [MYCOPHENOLATE MOFETIL], the “collision cross section (N2)” value was 197.3 Å².

As for `COc1c(C)c2c(c(O)c1C/C=C(\C)CCC(=O)O)C(=O)OC2` [MYCOPHENOLIC ACID], the “collision cross section (N2)” value worked out at 165.4 Å².

As for `CNc1ccccc1C(=O)O` [N-METHYLANTHRANILIC ACID], the “collision cross section (N2)” value stood at 125.9 Å².

Turning to `CC(C)(C)NCC(O)COc1cccc2c1C[C@H](O)[C@H](O)C2` (stereo partly specified) [NADOLOL], the “collision cross section (N2)” value was determined as 171.8 Å².

In the case of `CCn1cc(C(=O)O)c(=O)c2ccc(C)nc21` [NALIDIXIC ACID], the “collision cross section (N2)” value was found to be 145.3 Å².

As for `NC(=O)c1cccnc1` [NIACINAMIDE], the “collision cross section (N2)” value was 121.7 Å².

On to `O=C(N/N=C/c1ccc([N+](=O)[O-])o1)c1ccc(O)cc1` [NIFUROXAZIDE], for which the “collision cross section (N2)” value is 154.4 Å².

As for `Cc1ncc(CNC(=O)N(CCCl)N=O)c(N)n1` [NIMUSTINE], the “collision cross section (N2)” value was 158.9 Å².

Consider `CCOC(=O)C1=C(C)NC(C)=C(C(=O)OC)C1c1cccc([N+](=O)[O-])c1` (stereo unspecified) [NITRENDIPINE], for which the “collision cross section (N2)” value is 181.9 Å².

Turning to `NC(=O)N/N=C/c1ccc([N+](=O)[O-])o1` [NITROFURAZONE], the “collision cross section (N2)” value is listed as 138.6 Å².

Turning to `CCCCCCCCCc1ccc(OCCOCCOCCOCCOCCOCCOCCOCCOCCO)cc1` [NONOXYNOL-9], the “collision cross section (N2)” value is given as 245.8 Å².

In the case of `C#C[C@]1(OC(C)=O)CC[C@H]2[C@@H]3CCC4=CC(=O)CC[C@@H]4[C@H]3CC[C@@]21C` [NORETHINDRONE ACETATE], the “collision cross section (N2)” value came to 186.3 Å².

In the case of `C#C[C@]1(O)CC[C@H]2[C@@H]3CCC4=CC(=O)CC[C@@H]4[C@H]3CC[C@@]21C` [NORETHINDRONE], the “collision cross section (N2)” value was determined as 174.4 Å².

As for `CC1COc2c(N3CCN(C)CC3)c(F)cc3c(=O)c(C(=O)O)cn1c23` (stereo unspecified) [OFLOXACIN], the “collision cross section (N2)” value is recorded as 188.5 Å².

As to `C[C@@H]1CN(c2c(F)c(F)c3c(=O)c(C(=O)O)cn(C4CC4)c3c2F)C[C@H](C)N1` [ORBIFLOXACIN], the “collision cross section (N2)” value came out at 196.7 Å².

As for `CCCCCCCCCCC[C@@H](C[C@@H]1OC(=O)[C@H]1CCCCCC)OC(=O)[C@H](CC(C)C)NC=O` [ORLISTAT], the “collision cross section (N2)” value is on record as 241.2 Å².

On to `Cc1ncc([N+](=O)[O-])n1CC(O)CCl` (stereo unspecified) [ORNIDAZOLE], for which the “collision cross section (N2)” value is 141.7 Å².

For the compound `Cc1cc(O)cc(O)c1C(=O)O` [ORSELLINIC ACID], the “collision cross section (N2)” value was determined as 129.1 Å².

As to `C[C@@H]1O[C@@H](O[C@H]2C[C@@H](O)[C@]3(CO)[C@H]4[C@H](O)C[C@]5(C)[C@@H](C6=CC(=O)OC6)CC[C@]5(O)[C@@H]4CC[C@]3(O)C2)[C@H](O)[C@H](O)[C@H]1O` [OUABAIN], the “collision cross section (N2)” value worked out at 234 Å².

In the case of `O=C(O)CCc1nc(-c2ccccc2)c(-c2ccccc2)o1` [OXAPROZIN], the “collision cross section (N2)” value worked out at 169.7 Å².

For the compound `NC(=O)N1c2ccccc2CC(=O)c2ccccc21` [OXCARBAZEPINE], the “collision cross section (N2)” value is given as 152.7 Å².

For `CCN(CC)CCOCCOC(=O)C(CC)(CC)c1ccccc1` [OXELAIDIN CITRATE], the “collision cross section (N2)” value was determined as 178.3 Å².

For `COC(=O)Nc1nc2ccc(S(=O)c3ccccc3)cc2[nH]1` (stereo unspecified) [OXFENDAZOLE], the “collision cross section (N2)” value came to 174.1 Å².

Regarding `CCCOc1ccc2nc(NC(=O)OC)[nH]c2c1` [OXIBENDAZOLE], the “collision cross section (N2)” value turned out to be 157.5 Å².

As to `CCn1cc(C(=O)O)c(=O)c2cc3c(cc21)OCO3` [OXOLINIC ACID], the “collision cross section (N2)” value was found to be 149.1 Å².

For the compound `CC(=O)OC1C(=O)C2(C)C(O)CC3OCC3(OC(C)=O)C2C(OC(=O)c2ccccc2)C2(O)CC(OC(=O)C(O)C(NC(=O)c3ccccc3)c3ccccc3)C(C)=C1C2(C)C` (stereo unspecified) [PACLITAXEL], the “collision cross section (N2)” value is 278.9 Å².

The same data set, now with this note: [M+Na]+; instrument: TW; calibrated with polyalanine and drug standards.
`CC(C)(C#N)O[C@@H]1O[C@H](CO)[C@@H](O)[C@H](O)[C@H]1O` [LINAMARIN]: the “collision cross section (N2)” value was 157.3 Å².

With `CC[C@H](C)C(=O)O[C@H]1C[C@@H](C)C=C2C=C[C@H](C)[C@H](CC[C@@H]3C[C@@H](O)CC(=O)O3)[C@H]21` [LOVASTATIN], the “collision cross section (N2)” value turned out to be 202 Å².

`OC[C@H]1O[C@@](CO)(O[C@H]2O[C@H](CO)[C@@H](O)[C@H](O)[C@H]2O)[C@@H](O[C@H]2O[C@H](CO)[C@@H](O)[C@H](O)[C@H]2O)[C@@H]1O` [MELEZITOSE]: the “collision cross section (N2)” value was 199.2 Å².

For the compound `COC(=O)CC[C@@H](C)[C@H]1CC[C@H]2[C@@H]3CC[C@@H]4C[C@H](O)CC[C@]4(C)[C@H]3C[C@H](O)[C@]12C` [METHYL DEOXYCHOLATE], the “collision cross section (N2)” value came to 199.1 Å².

Consider `CC(=O)N[C@H]1C(O)O[C@H](CO)[C@@H](O)[C@@H]1O[C@H](C)C(=O)O` (stereo partly specified) [N-ACETYLMURAMIC ACID], for which the “collision cross section (N2)” value is listed as 164.8 Å².

Take `CC(=O)N[C@H]1[C@H]([C@H](O)[C@H](O)CO)O[C@](O)(C(=O)O)C[C@@H]1O` [N-ACETYLNEURAMIC ACID]: the “collision cross section (N2)” value was 166.6 Å².
